According to patent US20230181535A1, “UBIQUITIN-LIGASE INHIBITORS FOR THE TREATMENT OF CANCER” (FUNDACIÓN PROFESOR NOVOA SANTOS, priority 2020, published 2023):
Values joined by “and” are separate entries in the source; they are usually repeats but may differ in a detail not shown here. Equal values may be shown once.

How the values were obtained:
[1] = tested on: prostate cancer PC-3 cells; test: BrdU proliferation assay, PC-3; format: cell-based, human; settings: 48 h
Description: (§1) For BrdU assays, 1×10^4 of indicated cells were plated per well into a 96-well plate. After 24 h, cells were treated with the indicated inhibitors for 48 h. Three independent experiments were plated with six replicates per each condition. Cells were treated with […] BrdU for 2 h. BrdU incorporation into newly synthesized DNA was measured using a cell proliferation colorimetric immunoassay kit according to the manufacturer's instructions (Roche, Switzerland). Results are expressed as mean±S.D. Results are represented as percentage of positive cells (mean±S.D) of three independent experiments.

[2] = tested on: mouse cryopreserved hepatocytes; test: Metabolite profiling in mouse cryopreserved hepatocytes; format: in vitro ADME; settings: for Area percentage in sample, 0 minute control / Area percentage in sample, 10 minute sample / Area percentage in sample, 20 minute sample / Absolute area in sample, 0 minute control / Absolute area in sample, 10 minute sample / Absolute area in sample, 20 minute sample: mouse hepatocyte samples; for Absolute area in sample, 0 minute control / Absolute area in sample, 10 minute sample / Absolute area in sample, 20 minute sample: XIC area
Description: (§2) Test compound (final substrate concentration 3 μM; final DMSO concentration 0.25%) were pre-incubated at 37° C., prior to the addition of a suspension of cryopreserved hepatocytes (final cell density 0.5×10^6 viable cells/mL in Williams E media supplemented with 2 mM L glutamine and 25 mM HEPES) to initiate the reaction. The reactions were stopped with acetonitrile containing internal standard at the appropriate time points ([…]). The termination plates were centrifuged at 2500 rpm at 4° C. for 30 minute to precipitate the protein. Following the hepatocyte stability assays, the samples were utilized for metabolite profiling. Hepatocyte stability in mouse and human was performed by using the incubation of tested compound (3 μM) with cryopreserved hepatocytes in suspension. Samples were removed at 6 time points over the course of a 60 min experiment and remaining test compound at each time point was analysed by using LC-MS/MS. Then, data was analysed and an intrinsic clearance (CLint) with standard error and half-life (t½) reported.
The samples from the hepatocyte stability assay were utilized for metabolite profiling. The 10 and 20 minute samples were compared to the 0 minute control sample to identified the metabolites formed. […] The areas and percentages reported for the parent and metabolites have been calculated using the XIC data; it has been assumed that each metabolite has the same ionization efficiency and that the sensitivity of the metabolite has not been affected by the biotransformation. […] For accuracy, a ppm error of less than 5 is desirable; when the response for a metabolite observed is low the ppm error maybe greater than 5. Where a metabolite has been referred to as a potential oxidation it can refer to a potential hydroxylation, epoxidation or oxide formation. Representative collision induced dissociation (CID) mass spectra were obtained for the metabolites found. Structural elucidation was then performed on the metabolite observed. The data are processed using Metabolynx XS (Waters Ltd). When the compound structure has been provided, the data is processed using mass defect filtering1 with the dealkylation tool2; if the structure is not provided then mass defect, filtering alone is used. […] The de-alkylation tool is used in addition to the mass defect filtering to take into account that when the molecule cleaves metabolically e.g. at an amine group, the mass defect may change. Following this initial processing, the data is compared to the control sample to determine whether a series of expected metabolites are observed. Finally, the same data set is processed, using 1 a.m.u. windows across the whole data acquisition range to look for non-predicted or unexpected metabolites. After the automated Metabolynx XS processing, the data are reviewed to confirm the validity of the detected metabolites and to ensure correct assignment of the metabolite observed. The elemental formula for the observed ion and compound is reported, along with the error in parts per million (ppm) for the measured ion compared to the theoretical mass of the ion. […] Therefore, structures are depicted in Markush format3 with the shaded area showing potential sites of modification. Hepatocyte stability, metabolic profiling and test compound analysis was performed by Cyprotex Discovery.

Hakai-MDCK cells = test: Invasion assay, Hakai-MDCK; format: cell-based; settings: treated 48 h
Description: For invasion assays, cells were treated with Hakin-1 or DMSO as vehicle for 48 h using 1% FBS during the last 24 hours. 3×10^5 MDCK, MDCK-Hakai or LoVo cells were seeded in a cell invasion chamber (Cell invasion assay kit, Chemicon International) containing medium with 2% FBS. After 72 hours for MDCK and MDCK-Hakai Invasive and 16 h for LoVo cells, invasive cells invaded that reach the lower chamber containing 30% FBS were fixed and stained with crystal violet (Sigma Aldrich, St Louis, Mo.) following the manufacturer's specifications. For migration assays, HT29 cells were cultured with Hakin-1 or DMSO as vehicle for 48 h, using medium without serum the last 24 h. In the cell migration chamber were seeded 3×10^5 HT29 cells (Cell migration kit, Millipore, Bedford, Mass.) containing medium without serum. After 16 h, migrated cells in the lower chamber containing serum with 30% FBS were stained with crystal violet and counted following the manufacturer's specifications. For both invasion and migration assays cells were counted in five fields photographed with an Olympus microscope using a 20× objective, experiments were performed in triplicates for each condition and the assays were repeated at least three times. Results are expressed as mean±SD.

LoVo cells [3] = test: BrdU proliferation assay, LoVo; format: cell-based; settings: 48 h
Description: as §1

renal cancer ACHN cells = test: BrdU proliferation assay, ACHN; format: cell-based, human; settings: 48 h
Description: as §1

LoVo cells [4] = test: Phase-contrast cell phenotype, LoVo; format: cell-based
Description: MDCK, HEK293T, HepG2, MCF7 and ACHN cells were cultured in Dulbecco's Modified Eagles Medium (DMEM). MDCK stably expressing Hakai cells (Hakai-MDCK) were previously reported and were growth in DMEM with G418 (800 μg/ml). […] LoVo and PC-3 cells were cultured in F-12K Medium (Kaighn's Modification of Ham's F-12 Medium) and HT-29 and HCT116 cells in McCoy's 5a Medium Modified. 5637 cells were cultured in RPMI medium. All culture media were supplemented with 1% penicillin/streptomycin and 10% of heat-inactivated fetal bovine serum (FBS) at 37° C. in a humidified incubator with 5% CO2. Cells were monthly tested for mycoplasma contamination and used only for 1-3 months after defrosted. LoVo and HT29 cells were authenticated with the StemElite ID system (Promega). For phase-contrast images, culture cells were photographed with a Nikon Eclipse-TI microscope.

[5] = Hepatocyte stability, mouse; format: in vitro ADME; settings: cryopreserved mouse hepatocytes in suspension, read-out: half-life (T½)
Description: as §2

[6] = tested on: mouse-cryopreserved hepatocytes; test: Hepatocyte stability, mouse; format: in vitro ADME; settings: 3 μM
Description: as §2

Row | polarity compared to parent (LCMS) ([2]; metabolite from incubating compound #1 with mouse hepatocytes) | compound remaining after 60 min [6] | SMILES | cell proliferation (BrdU) [1] | found in hepatocyte stability assay samples (Mouse) [2] | Area percentage in sample, 0 minute control [2] | Area percentage in sample, 10 minute sample [2] [%] | Area percentage in sample, 20 minute sample [2] [%] | Absolute area in sample, 0 minute control [2] | Absolute area in sample, 10 minute sample [2] | Absolute area in sample, 20 minute sample [2] | cell invasion (Hakai-MDCK cells) | cell proliferation (BrdU) (LoVo cells [3]) | cell proliferation (BrdU) (renal cancer ACHN cells) | cell phenotype by phase contrast (LoVo cells [4]) | half-life at 3 μM [5] [min]
1 |  |  | O=C(O)c1ccc(-n2nnnc2SCC(=O)c2ccc([N+](=O)[O-])cc2)cc1 [Hakin-1, 4-(5-[2-(4-nitrophenyl)-2-oxoethyl]thiol-1H-tetrazol-1-yl)benzoic acid] | inhibited cell proliferation | ✓ | 97.2% | 26.2 | 5.99 | 43574 | 14090 | 2877 | decreased cell invasion | reduced cell proliferation | inhibited cell proliferation | modestly induce an epithelial phenotype | 5.92
2 | more polar than the parent | 95%-100% | O=C(O)c1ccc(-n2nnnc2SCC(O)c2ccc([N+](=O)[O-])cc2)cc1 (stereo not shown) [MKH1] |  | ✓ | 2.72% and 2.76% | 73.8 | 94 | 1235 | 39618 | 45169 |  |  |  |  | 
